Consider ten compounds from US4382958A, “Secondary amines and compositions for treatment of hypoglycaemia or obesity” (priority 1980, dated 1983).

The subject of test [1] is Platelet aggregation (response to collagen). The experiment in a line: Platelet aggregation inhibition activity: response to intravenous collagen in mice. It is filed as in vivo. As to conditions: two hours before collagen 400 μg/kg i.v. How it is done:
Male CFLP mice (ca 20 g, n=8) were dosed orally with compound or vehicle (controls) after an overnight fast. Two hours later each mouse received an intravenous dose of collagen (400 μg/kg, pH 6-6.6). Exactly 30 sec. after injection of collagen, each mouse was placed in a chamber of CO2 until respiration ceased. […] Each concentration was expressed as a percent of that obtained in a tail blood sample taken immediately before injection of collagen.

Test [2] relates to Female CFLP mice. The experiment in a line: Effect on energy expenditure and food intake of mice. The settings on record: Mus musculus, % of mice dosed with water; for response vs control in vivo at 22.9 mg/kg: 22.9 mg/kg po; for response vs control in vivo at 23.3 mg/kg: 23.3 mg/kg po; for response vs control in vivo at 24.9 mg/kg: 24.9 mg/kg po; for response vs control in vivo at 20.2 mg/kg: 20.2 mg/kg po; for response vs control in vivo at 19.1 mg/kg: 19.1 mg/kg po; for response vs control in vivo at 20.3 mg/kg: 20.3 mg/kg po; for response vs control in vivo at 22.1 mg/kg: 22.1 mg/kg po; for response vs control in vivo at 5.7 mg/kg: 5.7 mg/kg po. It is filed as in vivo. How it is done:
Female CFLP mice each weighing approximately 24 g were given food and water ad lib before and during the experiment. The compounds were dissolved in water by addition of one mole of hydrochloric acid per mole of compound and these solutions were administered orally to each of 12 mice. A further 12 mice were dosed orally with water. The mice were placed in boxes through which air was drawn and the oxygen content of the air leaving the boxes was measured. The energy expenditure of the mice was calculated for 21 hours after dosing from the volume of air leaving the boxes and its oxygen content following the principles described by J. B. de V. Weir, J. Physiol. […] The food intake of the mice was measured over this same period of 21 hours. The results are expressed as a percentage of the mean food intake or rate of energy expenditure of the mice dosed with water.

Another test has as its system Rat hearts. The experiment in a line: Cardiac activity: rat hearts perfused by the Langendorff procedure. The procedure: Rat hearts were perfused by the Langendorff procedure.
Hearts were dissected free within 30 seconds of death and reverse perfused via the aorta and coronary vessels with Krebs-Ringer bicarbonate solution (pH 7.4, 37° C.) gassed with 95% oxygen: 5% carbon dioxide at a flow rate between 8-12 cm^3 /minute. Responses were observed after injection of drug dissolved in isotonic saline into the perfusion media.
Results are expressed as a percentage of the maximum response due to salbutamol.

Test [3] relates to Female CFLP mice. Nature of the test: Hypoglycaemic activity: blood glucose of fasted mice after subcutaneous glucose. It is filed as in vivo. As to conditions: Mus musculus, read-out: REDUCTION IN AREA UNDER BLOOD GLUCOSE CURVE (%); for inhibition in vivo at 1 µmol/kg: 1.0 μ mol/kg oral. How it is done:
Female CFLP mice, weighing approximately 25 g, were fasted for 24 hours prior to the study. The compounds under study were administered orally as an aqueous solution to each of 8 mice. 30 minutes later a blood sample ([…]) was obtained from the tail for the analysis of blood glucose. Immediately after taking this blood sample, glucose (1 g/kg body weight) was administered subcutaneously to each mouse. 8 mice were given water as a control. Blood samples were then obtained from each mouse at 30 minute intervals for 120 minutes.
Compounds that produced a significant (P<0.05) reduction on blood glucose, compared with control mice given water, at any time interval, were considered active. The area under the blood glucose curve over the 2 hour period after the administration of the glucose was calculated for each compound and compared with the value for control animals.

The mark [4] stands for this setting: 0-3h, read-out: MEAN ENERGY EXPENDITURE (%) 0-3h.
[5] abbreviates: 0-21h, read-out: MEAN ENERGY EXPENDITURE (%) 0-21h.
The mark [6] stands for this setting: over 21 hours, read-out: MEAN FOOD INTAKE (%).
[7] abbreviates: 30 μg added to perfusate, percentage of the maximum response due to salbutamol, read-out: HEART TENSION.
[8] abbreviates: 30 μg added to perfusate, percentage of the maximum response due to salbutamol, read-out: HEART RATE.
The mark [9] stands for this setting: 2.5 μ mol/kg oral, 2 hour period after glucose, vs control mice given water.
The mark [10] stands for this setting: 2 hour period after glucose, vs control mice given water.

Like-named read-outs stand apart in the source and are kept apart here.

For the compound `CC(=O)Oc1ccccc1C(=O)O` [Aspirin, reference compound], the “% INHIBITION OF RESPONSE TO COLLAGEN” value in test [1] (600 μ mol/kg po) was determined as 47%.

Regarding `CC(Cc1ccc(OCCCCO)cc1)NCC(O)c1cccc(C(F)(F)F)c1` (stereo not shown) [Example 2, N-[2-(4-(4-hydroxybutoxy)phenyl)-1-methylethyl]-2-hydroxy-2-(3-trifluoromethylphenyl)ethanamine], the response vs control in vivo at 22.9 mg/kg in the test on Female CFLP mice [2] (setting [4]) amounted to 168%; in the test with Female CFLP mice [2] (setting [5]) it was 135%; in the test on Female CFLP mice [2] (setting [6]) it was 89%. Besides, the figures for the Emax in the test on Rat hearts (setting [7]) and in the test with Rat hearts (read-out: HEART RATE) were 22% and 0%, respectively. For the same compound, in the test with Female CFLP mice [3] (2.4 μ mol/kg oral, 2 hour period after glucose, vs control mice given water), the inhibition in vivo at 2.4 µmol/kg was 57%. Also, the “% INHIBITION OF RESPONSE TO COLLAGEN” value in test [1] (1 μ mol/kg po) came to 26%.

On to `CC(Cc1ccc(OCCCCCCCCCCCO)cc1)NCC(O)c1cccc(C(F)(F)F)c1` (stereo not shown) [Example 6, N-[2-(4-(11-Hydroxyundecyloxy)phenyl)1-methylethyl]-2-hydroxy-2-(3-trifluoromethylphenyl)-ethanamine], for which the response vs control in vivo at 23.3 mg/kg was 132% in the test with Female CFLP mice [2] (setting [4]), 101% with Female CFLP mice [2] (setting [5]) and 99% with Female CFLP mice [2] (setting [6]). In addition, the Emax turned out to be 0% with Rat hearts (setting [8]) and 36% with Rat hearts (setting [7]). The inhibition in vivo at 2.5 µmol/kg in the test on Female CFLP mice [3] (setting [9]) came out at 24%.

For `CC(Cc1ccc(OC(C)(C)CO)cc1)NCC(O)c1cccc(C(F)(F)F)c1` (stereo not shown) [Example 7, N-[2-(4-(1,1-Dimethyl-2-hydroxyethoxy)phenyl)-1-methylethyl]-2-hydroxy-2-(3-trifluoromethylphenyl)-ethanamine], the values for the response vs control in vivo at 24.9 mg/kg in the test with Female CFLP mice [2] (setting [4]), in the test on Female CFLP mice [2] (setting [5]) and with Female CFLP mice [2] (setting [6]) were 145%, 118% and 116%, respectively. Also, the Emax in the test with Rat hearts (setting [8]) turned out to be 46%; with Rat hearts (setting [7]), 29%. Besides, the inhibition in vivo at 2.5 µmol/kg in the test with Female CFLP mice [3] (po, 2 h) was 45%.

Consider `COc1ccc(C(O)CNC(C)Cc2ccc(OCCO)cc2)cc1F` (stereo not shown) [Example 8, N-[2-(4-(2-Hydroxyethoxy)phenyl)-1-methylethyl]-2-hydroxy-2-(3-fluoro-4-methoxyphenyl)-ethanamine], for which the response vs control in vivo at 20.2 mg/kg came to 138% in the test on Female CFLP mice [2] (setting [4]), 96% with Female CFLP mice [2] (setting [5]) and 86% in the test with Female CFLP mice [2] (setting [6]). Also, the Emax in the test on Rat hearts (setting [8]) and in the test on Rat hearts (setting [7]) was 13% each time. The inhibition in vivo at 12.5 µmol/kg in the test with Female CFLP mice [3] (12.5 μ mol/kg oral, 2 hour period after glucose, vs control mice given water) is 21%.

On to `CC(C)(CCc1ccc(OCCO)cc1)NCC(O)c1ccccc1` (stereo not shown) [Example 9, N-[3-[4-(2-Hydroxyethoxy)phenyl]-1,1-dimethylpropyl]-2-hydroxy-2-phenylethanamine], for which the response vs control in vivo at 19.1 mg/kg came to 102% in the test on Female CFLP mice [2] (setting [4]), 98% with Female CFLP mice [2] (setting [5]) and 91% with Female CFLP mice [2] (setting [6]). For the same compound, the inhibition in vivo at 50 µmol/kg in the test with Female CFLP mice [3] (50.0 μ mol/kg oral, 2 hour period after glucose, vs control mice given water) is 55%.

Turning to `CC(CCc1ccc(OCCO)cc1)NCC(O)c1cccc(Cl)c1` (stereo not shown) [Example 10, N-[3-(4-(2-Hydroxyethoxy)phenyl)-1-methylpropyl]-2-hydroxy-2-(3-chlorophenyl)ethanamine], the response vs control in vivo at 20.3 mg/kg in the test on Female CFLP mice [2] (setting [4]) stood at 159%; in the test with Female CFLP mice [2] (setting [5]), 114%; in the test with Female CFLP mice [2] (setting [6]), 88%. The inhibition in vivo at 2.5 µmol/kg in the test on Female CFLP mice [3] (setting [9]) was 23%.

In the case of `Cc1cc(CC(C)NCC(O)c2cccc(C(F)(F)F)c2)ccc1OCCO` (stereo not shown) [Example 11, N-[2-{4-(2-Hydroxyethoxy)-3-methylphenyl}-1-methylethyl]-2-hydroxy-2-(3-trifluoromethylphenyl)ethanamine], the values for the response vs control in vivo at 22.1 mg/kg with Female CFLP mice [2] (setting [4]), with Female CFLP mice [2] (setting [5]) and with Female CFLP mice [2] (setting [6]) were 136%, 113% and 115%, respectively. In addition, the inhibition in vivo at 1 µmol/kg with Female CFLP mice [3] (setting [10]) amounted to 31%.

With `C[C@H](Cc1ccc(OCCCCO)cc1)NC[C@H](O)c1cccc(C(F)(F)F)c1` [Example 13, N-[2-{4-(4-Hydroxybutoxy)phenyl}-1-(R)-1-methylethyl]-2-(R)-2-hydroxy-2-(3-trifluoromethylphenyl)ethanamine], the response vs control in vivo at 5.7 mg/kg amounted to 134% in the test on Female CFLP mice [2] (setting [4]), 116% in the test with Female CFLP mice [2] (setting [5]) and 93% with Female CFLP mice [2] (setting [6]). Further, the Emax in the test on Rat hearts (setting [8]) is 17%; with Rat hearts (setting [7]), 47%. Also, the inhibition in vivo at 1 µmol/kg with Female CFLP mice [3] (setting [10]) was 37%.

As for `CC(C)(C)NCC(O)c1ccc(O)c(CO)c1` (stereo not shown) [Salbutamol, reference compound], the Emax in the test with Rat hearts (salbutamol maximum response (reference), dose not stated, read-out: HEART RATE) is 100%; in the test with Rat hearts (salbutamol maximum response (reference), dose not stated, read-out: HEART TENSION), 100%.
